Measured values from patent US9982005B2, “Macrolides and methods of their preparation and use” (President and Fellows of Harvard College, priority 2013, dated 2018).
In brackets after ≈: the same amount, converted by molar mass. Read-outs that look alike come from different tables or passages of the source.

What was measured:
Type in all cases: cell-based
EC878 E. coli tolC = assay: broth dilution MIC, E. coli EC878; details: Escherichia coli
Excerpt: (§1) We have collected MIC data for a total of 50 novel macrolides that this platform has produced against over 21 unique strains of B. subtilis, E. coli, S. aureus, S. pneumoniae, and H. influenzae, including several multidrug-resistant strains, with a special focus on macrolide resistant mechanisms (vide supra). Azithromycin was included as a control macrolide. CLSI standard procedures for broth dilution MIC determination were used. […] These genotypes can be constitutive or inducible. The finding that C4-epi (unnatural) isomers of the “azaketolide” macrolide class have enhanced activities relative to C4 natural isomers is very exciting.

EC107 E. coli ATCC25922 = assay: broth dilution MIC, E. coli EC107; details: Escherichia coli, read-out: MIC
Excerpt: as §1

[1] = test system: SA101 S. aureus ATCC29213; assay: broth dilution MIC, S. aureus SA101; details: Staphylococcus aureus, ATCC29213, SA101 S. aureus ATCC29213; read-out: MIC
Excerpt: as §1

EC882 E. coli imp = assay: broth dilution MIC, E. coli EC882; details: Escherichia coli
Excerpt: as §1

[2] = test system: BS1723 B. subtilis BS168 WT wild type; assay: broth dilution MIC, B. subtilis BS1723; details: Bacillus subtilis, BS1723 B. subtilis BS168 WT wild type; read-out: MIC
Excerpt: as §1

BS1725 B. subtilis ermC = assay: broth dilution MIC, B. subtilis BS1725; details: Bacillus subtilis
Excerpt: as §1

S. pneumoniae strains = assay: MIC against S. pneumoniae strains (Tables M7, M8); details: Streptococcus pneumoniae
Excerpt: CLSI standard procedures for broth dilution MIC determination were used. […] These genotypes can be constitutive or inducible.

K. pneumoniae strains = assay: MIC against K. pneumoniae strains (Table M8); details: Klebsiella pneumoniae, K. pneumoniae 10031
A. baumannii strains = assay: MIC against A. baumannii strains (Table M8); details: Acinetobacter baumannii, BAA747, A. baumannii BAA747-1
H. influenzae strains = assay: MIC against H. influenzae strains (Table M8); details: Haemophilus influenzae
Excerpt: as §1

E. faecalis strains = assay: MIC against E. faecalis strains (Table M8); details: Enterococcus faecalis, E. faecalis 29212
E. coli strains = assay: MIC against E. coli strains (Table M7); details: Escherichia coli, ATCC25922, E. coli ATCC 25922
Excerpt: as §1

S. aureus strains = assay: MIC against S. aureus strains (Table M7); details: Staphylococcus aureus
Excerpt: as §1

[3] = S. pneumoniae 160, read-out: MIC S. pneumonae (160)
[4] = S. pneumoniae 1509, read-out: MIC S. pneumoniae (1509)
[5] = S. pneumoniae 1533, read-out: MIC S. pneumoniae (1533)
[6] = S. pneumoniae 1537, read-out: MIC S. pneumoniae (1537)
[7] = S. pneumoniae 49619, read-out: MIC S. pneumoniae (49619)
[8] = H. influenzae 49247, read-out: MIC H. influenzae (49247)
[9] = H. influenzae 49766, read-out: MIC H. influenzae (49766)
[10] = ATCC29213, S. aureus ATCC 29213, read-out: MIC S. aureus (ATCC 29213)
[11] = S. aureus 183, read-out: MIC S. aureus (183)
[12] = S. aureus 506, read-out: MIC S. aureus (506)
[13] = S. aureus 1708, read-out: MIC S. aureus (1708)
[14] = USA300, S. aureus USA300, read-out: MIC S. aureus (USA300)

MIC (S. pneumoniae strains; [3]) [µg/mL] | MIC (S. pneumoniae strains; [4]) [µg/mL] | MIC (S. pneumoniae strains; [5]) [µg/mL] | MIC (S. pneumoniae strains; [6]) [µg/mL] | MIC (S. pneumoniae strains; [7]) [µg/mL] | MIC (K. pneumoniae strains) [µg/mL] | MIC (A. baumannii strains) [µg/mL] | MIC (H. influenzae strains; [8]) [µg/mL] | MIC (H. influenzae strains; [9]) [µg/mL] | MIC (E. faecalis strains) [µg/mL] | MIC (E. coli strains) [µg/mL] | MIC (S. aureus strains; [10]) [µg/mL] | MIC (S. aureus strains; [11]) [µg/mL] | MIC (S. aureus strains; [12]) [µg/mL] | MIC (S. aureus strains; [13]) [µg/mL] | MIC (S. aureus strains; [14]) [µg/mL] | Structure (SMILES) | MIC (EC878 E. coli tolC) [µg/mL] | MIC (EC107 E. coli ATCC25922) [µg/mL] | MIC [1] [µg/mL] | MIC (EC882 E. coli imp) [µg/mL] | further results
 |  |  |  |  |  |  |  |  |  |  |  |  |  |  |  | CC[C@H]1OC(=O)[C@H](C)C(=O)C[C@@H](O[C@@H]2OC(C)CC(N(C)C)C2O)[C@@](C)(OC)C[C@@H](C)CN(C(C)=O)[C@H](C)[C@H]2N(CCCCn3cc(-c4nccs4)nn3)C(=O)O[C@]12C (some centres unmarked) [FSM-30503] | > 32 | > 32 | > 32 | > 32 | MIC [2]: > 32 µg/mL; MIC (BS1725 B. subtilis ermC; BS1725 B. subtilis ermC (+ery)): > 32 µg/mL; MIC (BS1725 B. subtilis ermC; BS1725 B. subtilis ermC (−ery)): > 32 µg/mL
 |  |  |  |  |  |  |  |  |  |  |  |  |  |  |  | CC[C@H]1OC(=O)[C@H](C)C(=O)C[C@@H](O[C@@H]2OC(C)CC(N(C)C)C2O)[C@@](C)(OC)C[C@@H](C)CN[C@H](C)[C@H]2N(CCCCn3cc(-c4cccnn4)nn3)C(=O)O[C@]12C (some centres unmarked) [FSM-30506] | > 32 | > 32 | > 32 | > 32 | MIC [2]: > 32 µg/mL; MIC (BS1725 B. subtilis ermC; BS1725 B. subtilis ermC (+ery)): > 32 µg/mL; MIC (BS1725 B. subtilis ermC; BS1725 B. subtilis ermC (−ery)): > 32 µg/mL
 |  |  |  |  |  |  |  |  |  |  |  |  |  |  |  | CC[C@H]1OC(=O)[C@H](C)C(=O)C[C@@H](O[C@@H]2OC(C)CC(N(C)C)C2O)[C@](C)(OC)C[C@@H](C)CN(C(C)=O)[C@H](C)[C@H]2N(CCCCn3cc(-c4nc5ccccc5s4)nn3)C(=O)O[C@]12C (some centres unmarked) [FSM-10791] | 2 (≈ 2.23 µM) | > 32 | > 32 | 0.5 (≈ 0.557 µM) | MIC [2]: > 32 µg/mL; MIC (BS1725 B. subtilis ermC; BS1725 B. subtilis ermC (+ery)): > 32 µg/mL; MIC (BS1725 B. subtilis ermC; BS1725 B. subtilis ermC (−ery)): > 32 µg/mL
1 (≈ 1.15 µM) | > 32 | > 32 | > 32 | 2 (≈ 2.3 µM) | 16 (≈ 18.4 µM) | > 32 | 8 (≈ 9.22 µM) | 16 (≈ 18.4 µM) | 4 (≈ 4.61 µM) | > 32 | 8 (≈ 9.22 µM) | > 32 | > 32 | 16 (≈ 18.4 µM) | 8 (≈ 9.22 µM) | C=CC[C@@H]1[C@H]2N(CCCCn3cc(-c4cccc(N)c4)nn3)C(=O)O[C@]2(C)[C@@H](CC)OC(=O)[C@H](C)C(=O)[C@H](C)[C@@H](O[C@@H]2OC(C)CC(N(C)C)C2O)[C@](C)(OC)C[C@@H](C)CN1C (some centres unmarked) [FSM-11094] |  |  |  |  | 
8 (≈ 17.5 µM) | 16 (≈ 35 µM) | 8 (≈ 17.5 µM) | 8 (≈ 17.5 µM) | 0.25 (≈ 0.546 µM) | 0.5 (≈ 1.09 µM) | 0.5 (≈ 1.09 µM) | 4 (≈ 8.74 µM) | 8 (≈ 17.5 µM) | 8 (≈ 17.5 µM) | 1 (≈ 2.19 µM) | 0.25 (≈ 0.546 µM) | 16 (≈ 35 µM) | 2 (≈ 4.37 µM) | 0.5 (≈ 1.09 µM) | 0.25 (≈ 0.546 µM) | CN(C)c1ccc(O)c2c1C[C@H]1C[C@H]3[C@H](N(C)C)C(O)=C(C(N)=O)C(=O)[C@@]3(O)C(O)=C1C2=O [Minocycline, minocycline, reference compound] |  |  |  |  | 
0.25 (≈ 0.297 µM) | 4 (≈ 4.75 µM) | > 32 | > 32 | 0.125 (≈ 0.148 µM) | 4 (≈ 4.75 µM) | 16 (≈ 19 µM) | 2 (≈ 2.38 µM) | 4 (≈ 4.75 µM) | 0.5 (≈ 0.594 µM) | 16 (≈ 19 µM) | 2 (≈ 2.38 µM) | > 32 | > 32 | 2 (≈ 2.38 µM) | 2 (≈ 2.38 µM) | CC[C@H]1OC(=O)[C@H](C)C(=O)[C@H](C)[C@@H](O[C@@H]2OC(C)CC(N(C)C)C2O)[C@](C)(OC)C[C@@H](C)CCN[C@H](C)[C@H]2N(CCCCn3cc(-c4cccc(N)c4)nn3)C(=O)O[C@]12C (some centres unmarked) [FSM-21397] |  |  |  |  | 
> 32 | > 32 | > 32 | > 32 | > 32 | > 32 | > 32 | > 32 | > 32 | > 32 | > 32 | > 32 | > 32 | > 32 | > 32 | > 32 | CC[C@H]1OC(=O)[C@H](CC(=O)O)C(=O)[C@H](C)[C@@H](O[C@@H]2OC(C)CC(N(C)C)C2O)[C@](C)(OC)C[C@@H](C)CN[C@H](C)[C@H]2N(CCCCn3cc(-c4cccc(N)c4)nn3)C(=O)O[C@]12C (some centres unmarked) [FSM-56185] |  |  |  |  | 
0.5 (≈ 0.637 µM) | > 32 | > 32 | > 32 | 2 (≈ 2.55 µM) | > 32 | > 32 | 8 (≈ 10.2 µM) | > 32 | 8 (≈ 10.2 µM) | > 32 | 16 (≈ 20.4 µM) | > 32 | > 32 | 8 (≈ 10.2 µM) | 16 (≈ 20.4 µM) | CC[C@H]1OC(=O)C(C)(F)C(=O)[C@H](C)[C@@H](O[C@@H]2OC(C)CC(N(C)C)C2O)[C@](C)(OC/C=C/c2cnc3ccccc3c2)C[C@@H](C)CN[C@H](C)[C@H]2NC(=O)O[C@@]21C (some centres unmarked) [FSM-21088] |  |  |  |  | 
